The text below walks through data of ChEMBL document CHEMBL6103565, “Current strategies in design and synthesis of antifungals hybrid and chimeric diazine derivatives” (Bioorg Med Chem, 2025).

Converted amounts (≈) assume the structure as drawn.

Assay [1] has as its system Candida albicans. The experiment in a line: Antifungal activity against Candida albicans ATCC 90028 assessed as reduction in microbial growth. It is filed as functional.
In assay [2] the test system is Nakaseomyces glabratus. Briefly: Antifungal activity against Candida glabrata ATCC 90030 assessed as reduction in microbial growth. It counts as functional.
Assay [3] has as its system Candida tropicalis. Briefly: Antifungal activity against Candida tropicalis ATCC 750 assessed as reduction in microbial growth. It counts as functional.
The subject of assay [4] is Nakaseomyces glabratus. Briefly: Antifungal activity against Candida glabrata ATCC 90030 assessed as diameter of zone of inhibition. It is filed as functional.
Assay [5] has as its system Candida tropicalis. Briefly: Antifungal activity against Candida tropicalis ATCC 750 assessed as diameter of zone of inhibition. It counts as functional.
Assay [6] relates to Candida albicans. Briefly: Antifungal activity against Candida albicans ATCC 90028 assessed as diameter of zone of inhibition. It is filed as functional.
The test system of the next assay is Aspergillus flavus. The experiment in a line: Antifungal activity against Aspergillus flavus ATCC 20046 assessed as reduction in fungal growth incubated ofr 48 hrs by CLSI micro-dilution method. It counts as functional.
Another assay deals with Fusarium solani. The experiment in a line: Antifungal activity against Fusarium solani ATCC 20327 assessed as reduction in fungal growth incubated ofr 48 hrs by CLSI micro-dilution method. It counts as functional.
The next assay relates to Penicillium chrysogenum. Briefly: Antifungal activity against Penicillium chrysogenum ATCC 20044 assessed as reduction in fungal growth incubated ofr 48 hrs by CLSI micro-dilution method. It counts as functional.
For another assay, the system named is Penicillium frequentans. The experiment in a line: Antifungal activity against Penicillium frequentans ATCC 10110 assessed as reduction in fungal growth incubated ofr 48 hrs by CLSI micro-dilution method. It is filed as functional.
A further assay deals with Alternaria alternata. The experiment in a line: Antifungal activity against Alternaria alternata ATCC 8741 assessed as reduction in fungal growth incubated ofr 48 hrs by CLSI micro-dilution method. It is filed as functional.
Assay [7] has as its system Talaromyces purpureogenus. Briefly: Antifungal activity against Talaromyces purpureogenus assessed as zone of inhibition by disc diffusion method. It is filed as functional.
For another assay, the system named is Aspergillus terreus. The experiment in a line: Antifungal activity against Aspergillus terreus assessed as zone of inhibition by disc diffusion method. It counts as functional.
Assay [8] deals with Aspergillus niger. Briefly: Antifungal activity against Aspergillus niger assessed as zone of inhibition by disc diffusion method. It is filed as functional.
The test system of assay [9] is Candida albicans. The experiment in a line: Antifungal activity against Candida albicans SC5314 assessed as reduction in fungal growth incubated for 72 hrs by broth microdilution method. It is filed as functional.
Assay [10] has as its system Candida albicans. Briefly: Antifungal activity against Candida albicans ATCC 10231. It is filed as functional.
The test system of another assay is Pichia kudriavzevii. Briefly: Antifungal activity against Candida krusei ATCC 6258. It is filed as functional.
Another assay deals with Candida parapsilosis. Briefly: Antifungal activity against Candida parapsilosis ATCC 22019. It is filed as functional. The note with it: Lodderomyces parapsilosis.
For assay [11], the system named is Nakaseomyces glabratus. Briefly: Antifungal activity against Candida glabrata ATCC 90030. It counts as functional.
Assay [12] concerns Aspergillus fumigatus. The experiment in a line: Antifungal activity against Aspergillus fumigatus assessed as reduction in fungal growth incubated for 20 to 24 hrs by CLSI based micro-dilution analysis. It is filed as functional. As to conditions: time 20-24 hrs.
Assay [13] deals with Candida albicans. The experiment in a line: Antifungal activity against Candida albicans RCMB 005036 assessed as diameter of zone inhibition. It is filed as functional.
The test system of assay [14] is Aspergillus fumigatus. The experiment in a line: Antifungal activity against Aspergillus fumigatus RCMB 002568 assessed as diameter of zone inhibition. It counts as functional.
In assay [15] the test system is Aspergillus niger. Briefly: Antifungal activity against Aspergillus niger MTCC 282 assessed as reduction in microbial growth after 24 hrs by broth micro-dilution method. It is filed as functional.
Assay [16] has as its system Candida albicans. The experiment in a line: Antifungal activity against Candida albicans NRRL-Y477 assessed as zone of inhibition by disc diffusion method. It counts as functional.
Assay [17] concerns Candida albicans. Briefly: Antifungal activity against Candida albicans MTCC 227 by disc diffusion method. It is filed as functional, organism-based.
Assay [18] concerns Aspergillus niger. Briefly: Antifungal activity against Aspergillus niger MTCC 282 by disc diffusion method. It is filed as functional, organism-based.
The subject of assay [19] is Aspergillus niger. Briefly: Antifungal activity against Aspergillus niger MTCC 282 assessed as reduction in microbial growth after 48 hrs by broth dilution method. It is filed as functional.
The next assay relates to Aspergillus clavatus. Briefly: Antifungal activity against Aspergillus […] MTCC 1323 assessed as reduction in microbial growth after 48 hrs by broth dilution method. It counts as functional.
Assay [20] relates to Candida albicans. The experiment in a line: Antifungal activity against Candida albicans MTCC 227 assessed as reduction in microbial growth after 48 hrs by broth dilution method. It counts as functional.
The next assay deals with Microsporum audouinii. Briefly: Antifungal activity against Microsporum audouinii. It counts as functional.
In a further assay the test system is Cryptococcus neoformans. Briefly: Antifungal activity against Cryptococcus neoformans. It counts as functional.
Another assay has as its system Geotrichum candidum. The experiment in a line: Antifungal activity against Geotrichum candidum. It is filed as functional.
Assay [21] deals with Aspergillus fumigatus. The experiment in a line: Antifungal activity against Aspergillus fumigatus. It counts as functional.
Another assay concerns Trichophyton rubrum. Briefly: Antifungal activity against Trichophyton rubrum assessed as diameter of zone inhibition. It is filed as functional.
In assay [22] the test system is Aspergillus niger. The experiment in a line: Antifungal activity against Aspergillus niger ATCC 16404 assessed as inhibition of mycelial growth relative to control. It is filed as functional.
In assay [23] the test system is Candida albicans. Briefly: Antifungal activity against Candida albicans ATCC 10231 assessed as inhibition of mycelial growth relative to control. It is filed as functional.
For assay [24], the system named is Candida albicans. The experiment in a line: Antifungal activity against Candida albicans ATCC 10231 assessed as zone of inhibition incubated for 24 hrs by disc diffusion method. It counts as functional.
Assay [25] deals with Candida albicans. The experiment in a line: Antifungal activity against Candida albicans assessed as fungal growth inhibition. It counts as functional.

As for `Cc1ccc(C2C3=C(N=C4SC=CN42)[C@@]2(C)CC[C@H]4[C@@H](CC=C5C[C@@H](O)CC[C@@]54C)[C@@H]2C3)cc1` (stereo partly drawn), the results for the MIC in the assay on Candida albicans [1], in the assay with Nakaseomyces glabratus [2] and in the assay with Candida tropicalis [3] were 700 mg/L, over 1000 mg/L and over 1000 mg/L, respectively. Moreover, the figures for the “inhibition zone (IZ)” value with Nakaseomyces glabratus [4], in the assay with Candida tropicalis [5] and with Candida albicans [6] were 15 mm, 15 mm and 13 mm, respectively.

Regarding `CCC(C)CC(C)CCCCCCCCC(=O)N[C@H]1C[C@@H](O)[C@@H](NCCN)NC(=O)[C@@H]2[C@@H](O)CCN2C(=O)[C@H]([C@H](O)CCN)NC(=O)[C@H]([C@H](O)[C@@H](O)c2ccc(O)cc2)NC(=O)[C@@H]2C[C@@H](O)CN2C(=O)[C@H]([C@@H](C)O)NC1=O` (stereo partly drawn), the minimum inhibitory concentration (MIC) with Aspergillus flavus, in the assay on Fusarium solani, in the assay on Penicillium chrysogenum, in the assay on Penicillium frequentans and with Alternaria alternata was 0.25 mg/L (≈ 0.229 µM) throughout.

As for `C[C@@H](c1ncncc1F)[C@](O)(Cn1cncn1)c1ccc(F)cc1F` [VORICONAZOLE], the “inhibition zone (IZ)” value in assay [7] stood at 17 mm; in the assay on Aspergillus terreus, 20 mm; in the assay with Aspergillus niger [8], 20 mm.

Consider `O=C(NNc1nc2ccccc2nc1/C=C/c1ccccc1O)Nc1cccc(Cl)c1`, for which, in the assay on Candida albicans [9], the MIC is 0.125 µM (≈ 0.054 µg/mL).

In turn, `CC(=O)N1CCN(c2ccc(OC[C@H]3CO[C@](Cn4ccnc4)(c4ccc(Cl)cc4Cl)O3)cc2)CC1` showed an MIC50 against Candida albicans [10] of 0.78 mg/L (≈ 1.47 µM). Further, the MIC in the assay on Pichia kudriavzevii worked out at 0.78 mg/L (≈ 1.47 µM); against Candida parapsilosis, 0.78 mg/L (≈ 1.47 µM); in the assay with Nakaseomyces glabratus [11], 0.78 mg/L (≈ 1.47 µM); in the assay with Aspergillus fumigatus [12], 18 mg/L (≈ 33.9 µM). Also, the “inhibition zone (IZ)” value with Candida albicans [13] stood at 25 mm; in the assay with Aspergillus fumigatus [14], 23 mm.

For `C[C@]12CC[C@H](O)CC1=CC[C@@H]1[C@@H]2CC[C@]2(C)C3=C(C[C@@H]12)C(c1ccccc1)N1C=CSC1=N3` (stereo partly drawn), the values for the minimal inhibitory concentration (MIC) with Candida albicans [1], in the assay with Nakaseomyces glabratus [2] and in the assay on Candida tropicalis [3] were 750 mg/L, over 1000 mg/L and over 1000 mg/L, respectively.

On to `Clc1ccc(C2CC(c3cnc(Cl)cn3)=Nc3ccccc3S2)c(Cl)c1` (stereo not drawn), for which, in the assay with Aspergillus niger [15], the MIC is 19 µM.

Consider `CCOC(=O)c1c(C)nc2sc3c(ncn4nc(C)nc34)c2c1-c1cccs1`, for which the “inhibition zone (IZ)” value in the assay with Candida albicans [16] and in the assay with Aspergillus terreus was 25 mm in each case.

On to `CC(=O)N1N=C(C2=C(C)NC(=O)NC2c2ccc(F)cc2)OC1c1ccc([N+](=O)[O-])cc1` (stereo not drawn), for which the EC50 with Candida albicans [17] and in the assay on Aspergillus niger [18] was 0.14 mg/L (≈ 0.319 µM) in each case. The minimal inhibitory concentration (MIC) was 50 mg/L in the assay on Aspergillus niger [19], 50 mg/L in the assay on Aspergillus clavatus and 100 mg/L in the assay on Candida albicans [20].

`Clc1ccccc1C(c1ccccc1)(c1ccccc1)n1ccnc1` [CLOTRIMAZOLE]: the minimal inhibitory concentration (MIC) stood at 4 mg/L (≈ 11.6 µM) against Microsporum audouinii, 2 mg/L (≈ 5.8 µM) with Cryptococcus neoformans, 5 mg/L (≈ 14.5 µM) against Geotrichum candidum and 68 mg/L (≈ 197 µM) with Aspergillus fumigatus [21]. Besides, in the assay on Trichophyton rubrum, the “inhibition zone (IZ)” value was determined as 14 mm.

Regarding `C[C@@H]1[C@H](O)[C@@H](C)/C=C/C=C/CC/C=C/C=C/C=C/C=C/[C@H](O[C@@H]2O[C@H](C)[C@@H](O)[C@H](N)[C@@H]2O)C[C@@H]2O[C@](O)(C[C@@H](O)[C@H](O)CC[C@@H](O)C[C@@H](O)C[C@@H](O)CC(=O)O[C@H]1C)C[C@H](O)[C@H]2C(=O)O`, the “inhibition (INH)” value with Aspergillus niger [22] came out at 66%; with Candida albicans [23] it was 63%. The entries for the “inhibition zone (IZ)” value in the assay on Candida albicans [16] and in the assay on Candida albicans [24] were 23 mm and 26 mm, respectively. The MIC with Candida albicans [25] was 1 mg/L (≈ 1.08 µM).
